Data published in patent US20180002288A1, “USE OF PICOLINAMIDES AS FUNGICIDES” (DOW AGROSCIENCES LLC, priority 2014, published 2018).
Like-named read-outs stand apart in the source and are kept apart here.

Assays:
Phakopsora pachyrhizi = assay: Asian Soybean Rust fungicidal activity (PHAKPA); conditions: Phakopsora pachyrhizi, in Glycine max
Leptosphaeria nodorum = assay: Wheat Glume Blotch fungicidal activity (LEPTNO); assay type: in vivo; conditions: Parastagonospora nodorum, 24 h, high volume, 1 Day Protectant, read-out: LEPTNO % Control rating
Protocol: All fungicides were evaluated using the aforementioned method for their activity vs. all target diseases, unless stated otherwise. Wheat leaf blotch and brown rust activity were also evaluated using track spray applications, in which case the fungicides were formulated as EC formulations, containing 0.1% Trycol 5941 in the spray solutions. Wheat plants (variety Yuma) were grown from seed in a greenhouse in 50% mineral soil/50% soil-less Metro mix until the first leaf was fully emerged, with 7-10 seedlings per pot. These plants were inoculated with an aqueous spore suspension of Zymoseptoria tritici either prior to or after fungicide treatments. After inoculation the plants were kept in 100% relative humidity (one day in a dark dew chamber followed by two to three days in a lighted dew chamber at 20° C.) to permit spores to germinate and infect the leaf. The plants were then transferred to a greenhouse set at 20° C. for disease to develop. When disease symptoms were fully expressed on the 1st leaves of untreated plants, infection levels were assessed on a scale of 0 to 100 percent disease severity. Percent disease control was calculated using the ratio of disease severity on treated plants relative to untreated plants. Wheat plants (variety Yuma) were grown from seed in a greenhouse in 50% mineral soil/50% soil-less Metro mix until the first leaf was fully emerged, with 7-10 seedlings per pot. These plants were inoculated with an aqueous spore suspension of Leptosphaeria nodorum 24 hr after fungicide treatments. After inoculation the plants were kept in 100% relative humidity (one day in a dark dew chamber followed by two days in a lighted dew chamber at 20° C.) to permit spores to germinate and infect the leaf. The plants were then transferred to a greenhouse set at 20° C. for disease to develop. Fungicide formulation, application and disease assessment followed the procedures as described in the Example A.

Pyricularia oryzae = assay: whole plant or invertebrate; assay type: in vivo; conditions: 24 h, read-out: PYRIOR % Control rating
Puccinia triticina = assay: Wheat Brown Rust fungicidal activity (PUCCRT); assay type: in vivo; conditions: Low Volume Cereal Activity at 121.5 g/Ha
[1] = test system: Colletotrichum lagenarium; assay: Cucumber Anthracnose fungicidal activity (COLLLA); assay type: in vivo; conditions: Colletotrichum orbiculare, 24 h, high volume, 1 Day Protectant, read-out: COLLLA % Control rating
Protocol: All fungicides were evaluated using the aforementioned method for their activity vs. all target diseases, unless stated otherwise. Wheat leaf blotch and brown rust activity were also evaluated using track spray applications, in which case the fungicides were formulated as EC formulations, containing 0.1% Trycol 5941 in the spray solutions. Wheat plants (variety Yuma) were grown from seed in a greenhouse in 50% mineral soil/50% soil-less Metro mix until the first leaf was fully emerged, with 7-10 seedlings per pot. These plants were inoculated with an aqueous spore suspension of Zymoseptoria tritici either prior to or after fungicide treatments. After inoculation the plants were kept in 100% relative humidity (one day in a dark dew chamber followed by two to three days in a lighted dew chamber at 20° C.) to permit spores to germinate and infect the leaf. The plants were then transferred to a greenhouse set at 20° C. for disease to develop. When disease symptoms were fully expressed on the 1st leaves of untreated plants, infection levels were assessed on a scale of 0 to 100 percent disease severity. Percent disease control was calculated using the ratio of disease severity on treated plants relative to untreated plants. Cucumber seedlings (variety Bush Pickle) were propagated in soil-less Metro mix, with each pot having one plant, and used in the test when 12 to 14 days old. Test plants were inoculated with an aqueous spore suspension of Colletotrichum lagenarium 24 hr after fungicide treatments. After inoculation the plants were kept in a dew room at 22° C. with 100% relative humidity for 48 hr to permit spores to germinate and infect the leaf. The plants were then transferred to a growth room set at 22° C. for disease to develop. Fungicide formulation, application and disease assessment on the sprayed leaves followed the procedures as described in the Example A.

Zymoseptoria tritici = assay: Leaf Blotch of Wheat fungicidal activity (SEPTTR); assay type: in vivo; conditions: Low Volume Cereal Activity at 121.5 g/Ha

Work on `COc1cc(F)ccc1[C@@H](Oc1ccccc1)[C@H](C)OC(=O)[C@H](C)NC(=O)c1nccc(OC)c1OCOC(C)=O` [Example 256] yielded a pest or weed control at 25 ppm (Phakopsora pachyrhizi; 24 h, read-out: PHAKPA 1DP % Control rating, soybean, high volume, 25 ppm, 1 Day Protectant) of over 80%, a pest or weed control at 25 ppm (Phakopsora pachyrhizi; 72 h, read-out: PHAKPA 3DC % Control rating, soybean, high volume, 25 ppm, 3 Day Curative) of under 0% and a pest or weed control at 100 ppm (Leptosphaeria nodorum) of over 80%. It also gave a pest or weed control at 100 ppm (Pyricularia oryzae) of over 80%, a pest or weed control at 121.5 g/ha (Puccinia triticina; 24 h, 1 Day Protectant, read-out: PUCCRT 1DP (Wheat Brown Rust, 1 Day Protectant)) of over 80% and a pest or weed control at 121.5 g/ha (Puccinia triticina; 72 h, 3 Day Curative, read-out: PUCCRT 3DC (Wheat Brown Rust, 3 Day Curative)) of over 80%. It also gave a pest or weed control at 100 ppm [1] of over 80%, a pest or weed control at 121.5 g/ha (Zymoseptoria tritici; 24 h, 1 Day Protectant, read-out: SEPTTR 1DP (Wheat Leaf Blotch, 1 Day Protectant)) of over 80% and a pest or weed control at 121.5 g/ha (Zymoseptoria tritici; 72 h, 3 Day Curative, read-out: SEPTTR 3DC (Wheat Leaf Blotch, 3 Day Curative)) of over 80%.
